# From patent publication US20220380310A1, “P2X7R ANTAGONISTS” (priority 2019, published 2022)
# Target: T1, Human P2X4 receptor (P2X4R) (Homo sapiens, UniProt Q99571)
# T1 construct: expressed in transfected cells; host or cells: HEK-293
# T1 sequence (Q99571 1-388): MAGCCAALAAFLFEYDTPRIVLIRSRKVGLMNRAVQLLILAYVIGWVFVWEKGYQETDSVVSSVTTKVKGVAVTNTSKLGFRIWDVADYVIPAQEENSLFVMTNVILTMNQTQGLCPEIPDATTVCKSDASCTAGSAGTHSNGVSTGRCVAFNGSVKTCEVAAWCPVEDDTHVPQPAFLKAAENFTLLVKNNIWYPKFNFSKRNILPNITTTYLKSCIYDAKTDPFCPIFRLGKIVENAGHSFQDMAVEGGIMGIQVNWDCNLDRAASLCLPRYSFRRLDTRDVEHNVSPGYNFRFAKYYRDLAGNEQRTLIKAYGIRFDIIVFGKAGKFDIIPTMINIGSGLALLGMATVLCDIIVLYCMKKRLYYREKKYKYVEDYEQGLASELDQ
# Test: Receptor-mediated calcium entrance assay (Calcium Assay), P2X4R transfected HEK-293 cells
# Assay type: cell-based
# Conditions: HEK293, compound at 5 μM, 1 mM ATP stimulus, read-out: Percentage of activity remains in the presence of the compound at 5 μM, P2X4R (Calcium Assay)
# From the text: (§1) Human P2X1 receptor (P2X1R) is a member of P2X family. […] Thus, the calcium assay was used. In the calcium assay, P2X receptor activation leads to opening of ion channels, which increases intracellular calcium concentration. The increased intracellular calcium concentration can be detected by a calcium indicator dye such as Fluo-4 or Fluo-8. Molecular Probes™ Fluo-4, AM (Cat. No. F14201 from Fisher Scientific) was used in the assay. The procedures were similar as described in the Yo-Pro-1 assay until day 4. The construct of P2X1R for transient transfection to HEK-293 cells was the courtesy from Dr. Richard J. Evans laboratory (J. Biol. Chem. 279:9043-9055). After transfection and expression, on day 4 cells were washed twice by Ca-HBSS (The composition (in mM) was NaCl 135, HEPES 10, D-glucose 10, KCl 5.4, CaCl2 2, and MgCl2 1, pH to 7.4 by NaOH) and incubated in dye loading solution (The solution contained 2.5 μM Fluo-4, 1 mM probenecid, and 1× PowerLoad (Cat. No. P10020 from Fisher Scientific) in Ca-HBSS) for 70 minutes at 37° C. Then the extracellular loading dye was washed away and cells were incubated at Ca-HBSS containing 1 mM probenecid for 30 minutes. Before the final steps, probenecid was washed away with Ca-HBSS. The assay was performed by adding 25 μl of Ca-HBSS followed by 25 μl of various test compounds. At this point, the base level of fluorescence was obtained through the microplate reading—the base microplate reading for this assay. At the end, the stimulus (ATP at 20 μM was the final concentration for P2X1R) was added to activate the P2X1R. Activation of P2X1R opened the channel to allow influx of calcium, which was represented by fluorescence increases that were measured by the microplate device with excitation at 475 nm and emission wavelength in the range of 500-550 nm. The data were analyzed the same way as described before: The result of each well was first normalized by its corresponding base microplate reading. Then, the negative control signal was subtracted from. In the negative control, the test compound and the stimulus were replaced by Ca-HBSS. […] An average of six highest values of the plate (AVG) were considered as 100% and the value of each well was divided by AVG and presented as the relative values in percentages.
# Human P2X4 receptor (P2X4R) construct (J. Biol. Chem. 290, 7930-7942) was transiently transfected to HEK-293 cells and the calcium assay was performed as described above. When 1 mM ATP was used as stimulus, an increased receptor mediated activity leading to intracellular calcium elevation can be seen in less than 10 minutes.
row,SMILES,remaining activity at 5 µM
1,O=C(NCCc1ccccc1)C1CCN(S(=O)(=O)c2ccc(N3CCCC3)cc2)CC1 [#21],31%
2,O=C(CCc1ccccc1)NC1CCCN(S(=O)(=O)c2ccc(N3CCC(F)(F)CC3)cc2)C1 (stereo not drawn) [#46],75%
3,O=C(NCCc1ccccc1)C1CCCN(S(=O)(=O)c2ccc(N3CCCC3)cc2)C1 (stereo not drawn) [#25],61%
4,O=C(CCc1ccccc1)NC1CCCN(S(=O)(=O)c2ccc(N3CCC(C(F)(F)F)CC3)cc2)C1 (stereo not drawn) [#42],55.8%
5,O=C(CCc1ccccc1)NC1CCCN(S(=O)(=O)c2ccc(N3CCCCC3)c(Cl)c2)C1 (stereo not drawn) [#45],61.9%
6,O=C(CCc1ccccc1)N1CCN(S(=O)(=O)c2ccc(NC3CCCCC3)cc2)CC1 [#33],83.9%
7,O=C(NCCc1ccccc1)C1CCN(S(=O)(=O)c2ccc(N3CCOCC3)cc2)CC1 [#23],70.7%
8,CC(C)(C)OC(=O)N1CCN(c2ccc(S(=O)(=O)N3CCC(C(=O)NCCc4ccccc4)CC3)cc2)CC1 [#22],42.1%
9,CC(C)OC1CCN(c2ccc(S(=O)(=O)N3CCCC(NC(=O)CCc4ccccc4)C3)cc2)CC1 (stereo not drawn) [#39],68.2%
10,CCCCNc1ccc(S(=O)(=O)N2CCCC(NC(=O)CCc3ccccc3)C2)cc1 (stereo not drawn) [#15],63.8%
11,O=C(CCc1ccccc1)NC1CCCN(c2ccc(S(=O)(=O)NC3CCCCC3)cc2)C1 (stereo not drawn) [#51],71.3%
12,O=C(CCc1ccccc1)NC1CCCN(S(=O)(=O)c2ccc(F)cc2)C1 (stereo not drawn) [#3],67%

# Target: T2, Human P2X1 receptor (P2X1R) (Homo sapiens, UniProt P51575)
# T2 construct: expressed in transfected cells; host or cells: HEK-293
# T2 sequence (P51575 1-399): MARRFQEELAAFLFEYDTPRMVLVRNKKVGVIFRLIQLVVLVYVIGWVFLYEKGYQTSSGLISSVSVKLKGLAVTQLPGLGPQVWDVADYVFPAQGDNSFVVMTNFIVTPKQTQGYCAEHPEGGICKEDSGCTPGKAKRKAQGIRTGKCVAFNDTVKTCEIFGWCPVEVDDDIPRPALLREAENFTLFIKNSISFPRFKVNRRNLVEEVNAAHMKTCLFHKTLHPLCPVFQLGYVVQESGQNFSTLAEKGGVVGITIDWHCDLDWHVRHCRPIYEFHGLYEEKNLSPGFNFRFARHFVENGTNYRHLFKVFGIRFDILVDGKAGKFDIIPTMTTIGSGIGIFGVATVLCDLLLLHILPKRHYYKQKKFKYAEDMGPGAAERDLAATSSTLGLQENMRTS
# Test: Receptor-mediated calcium entrance assay (Calcium Assay), P2X1R transfected HEK-293 cells
# Assay type: cell-based
# Conditions: HEK293, compound at 5 μM, ATP 20 μM stimulus, read-out: Percentage of activity remains in the presence of the compound at 5 μM, P2X1R (Calcium Assay)
# From the text: as §1
row,SMILES,remaining activity at 5 µM
1,O=C(NCCc1ccccc1)C1CCN(S(=O)(=O)c2ccc(N3CCCC3)cc2)CC1 [#21],50.2%
2,O=C(CCc1ccccc1)NC1CCCN(S(=O)(=O)c2ccc(N3CCC(F)(F)CC3)cc2)C1 (stereo not drawn) [#46],67.7%
3,O=C(NCCc1ccccc1)C1CCCN(S(=O)(=O)c2ccc(N3CCCC3)cc2)C1 (stereo not drawn) [#25],66.1%
4,O=C(CCc1ccccc1)NC1CCCN(S(=O)(=O)c2ccc(N3CCC(C(F)(F)F)CC3)cc2)C1 (stereo not drawn) [#42],66.3%
5,O=C(CCc1ccccc1)NC1CCCN(S(=O)(=O)c2ccc(N3CCCCC3)c(Cl)c2)C1 (stereo not drawn) [#45],52%
6,O=C(CCc1ccccc1)N1CCN(S(=O)(=O)c2ccc(NC3CCCCC3)cc2)CC1 [#33],44.9%
7,O=C(NCCc1ccccc1)C1CCN(S(=O)(=O)c2ccc(N3CCOCC3)cc2)CC1 [#23],75.5%
8,CC(C)(C)OC(=O)N1CCN(c2ccc(S(=O)(=O)N3CCC(C(=O)NCCc4ccccc4)CC3)cc2)CC1 [#22],59.2%
9,CC(C)OC1CCN(c2ccc(S(=O)(=O)N3CCCC(NC(=O)CCc4ccccc4)C3)cc2)CC1 (stereo not drawn) [#39],74.5%
10,CCCCNc1ccc(S(=O)(=O)N2CCCC(NC(=O)CCc3ccccc3)C2)cc1 (stereo not drawn) [#15],70.1%
11,O=C(CCc1ccccc1)NC1CCCN(c2ccc(S(=O)(=O)NC3CCCCC3)cc2)C1 (stereo not drawn) [#51],63.1%
12,O=C(CCc1ccccc1)NC1CCCN(S(=O)(=O)c2ccc(F)cc2)C1 (stereo not drawn) [#3],33.3%

# Target: T3, P2X2R (Homo sapiens, UniProt Q9UBL9)
# T3 construct: expressed in transfected cells; host or cells: HEK-293
# T3 sequence (Q9UBL9 1-471): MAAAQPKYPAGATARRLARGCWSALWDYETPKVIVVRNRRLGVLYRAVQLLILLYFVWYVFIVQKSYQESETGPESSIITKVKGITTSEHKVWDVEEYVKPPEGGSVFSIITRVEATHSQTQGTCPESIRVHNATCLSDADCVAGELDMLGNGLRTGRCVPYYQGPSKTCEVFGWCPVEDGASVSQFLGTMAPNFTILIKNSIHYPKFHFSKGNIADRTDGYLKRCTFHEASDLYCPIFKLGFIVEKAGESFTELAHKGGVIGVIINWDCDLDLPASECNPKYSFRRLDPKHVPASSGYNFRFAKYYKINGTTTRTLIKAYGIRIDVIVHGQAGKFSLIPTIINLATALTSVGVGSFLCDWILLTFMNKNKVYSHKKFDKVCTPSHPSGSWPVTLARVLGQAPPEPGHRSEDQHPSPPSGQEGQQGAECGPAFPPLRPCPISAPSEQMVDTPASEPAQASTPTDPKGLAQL
# Test: Receptor-mediated calcium entrance assay (Calcium Assay), P2X2R
# Assay type: cell-based
# Conditions: compound at 5 μM, read-out: Percentage of activity remains in the presence of the compound at 5 μM, P2X2R (Calcium Assay)
row,SMILES,remaining activity at 5 µM
1,O=C(NCCc1ccccc1)C1CCN(S(=O)(=O)c2ccc(N3CCCC3)cc2)CC1 [#21],94.3%
2,O=C(CCc1ccccc1)NC1CCCN(S(=O)(=O)c2ccc(N3CCC(F)(F)CC3)cc2)C1 (stereo not drawn) [#46],71%
3,O=C(NCCc1ccccc1)C1CCCN(S(=O)(=O)c2ccc(N3CCCC3)cc2)C1 (stereo not drawn) [#25],70%
4,O=C(CCc1ccccc1)NC1CCCN(S(=O)(=O)c2ccc(N3CCC(C(F)(F)F)CC3)cc2)C1 (stereo not drawn) [#42],62.7%
5,O=C(CCc1ccccc1)NC1CCCN(S(=O)(=O)c2ccc(N3CCCCC3)c(Cl)c2)C1 (stereo not drawn) [#45],49.4%
6,O=C(CCc1ccccc1)N1CCN(S(=O)(=O)c2ccc(NC3CCCCC3)cc2)CC1 [#33],83.6%
7,O=C(NCCc1ccccc1)C1CCN(S(=O)(=O)c2ccc(N3CCOCC3)cc2)CC1 [#23],57.7%
8,CC(C)(C)OC(=O)N1CCN(c2ccc(S(=O)(=O)N3CCC(C(=O)NCCc4ccccc4)CC3)cc2)CC1 [#22],85.8%
9,CC(C)OC1CCN(c2ccc(S(=O)(=O)N3CCCC(NC(=O)CCc4ccccc4)C3)cc2)CC1 (stereo not drawn) [#39],86.6%
10,CCCCNc1ccc(S(=O)(=O)N2CCCC(NC(=O)CCc3ccccc3)C2)cc1 (stereo not drawn) [#15],80.4%
11,O=C(CCc1ccccc1)NC1CCCN(c2ccc(S(=O)(=O)NC3CCCCC3)cc2)C1 (stereo not drawn) [#51],81.2%
12,O=C(CCc1ccccc1)NC1CCCN(S(=O)(=O)c2ccc(F)cc2)C1 (stereo not drawn) [#3],98%
